The experiment addresses T1, human Bradykinin B1 receptor (Homo sapiens, UniProt P46663).
T1 construct: host or cells: CHO-K1
T1 sequence (P46663 1-353): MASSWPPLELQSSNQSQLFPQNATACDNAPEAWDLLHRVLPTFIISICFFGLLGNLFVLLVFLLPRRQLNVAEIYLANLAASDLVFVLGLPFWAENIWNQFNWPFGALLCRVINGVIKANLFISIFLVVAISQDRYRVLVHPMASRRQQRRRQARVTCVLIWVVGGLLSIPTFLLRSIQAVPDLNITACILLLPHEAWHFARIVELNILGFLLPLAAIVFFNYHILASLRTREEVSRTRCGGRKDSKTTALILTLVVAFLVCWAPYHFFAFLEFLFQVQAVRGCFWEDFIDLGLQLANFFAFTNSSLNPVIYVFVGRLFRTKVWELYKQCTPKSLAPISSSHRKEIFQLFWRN
Briefly: Calcium flux assay (FLIPR), CHO-K1 cells expressing human Bradykinin B1 receptor, absence of 0.1% BSA (hB1 free IC50). To be noted: absence of 0.1% BSA in assay buffer. In kind it is cell-based. In outline: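 Peak FLIPR fluorescence (538 nm) after B1 agonist peptide addition gave IC50s, scaled between DMSO and full block by 20 µM Lys-(Des-Arg-Leu)-Bradykinin. Compounds were preincubated 30 min at 28° C with calcium-dye-loaded CHO-K1 cells expressing human B1, at 8 concentrations in triplicate, 1% DMSO final.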
For orientation: A change in cytosolic calcium serves as a functional read-out for many receptors and channels.

With `CCC(F)(F)c1ccc(-c2ccc(NC(=O)C3(c4ccc(Cl)cc4F)CC3)cc2C(=O)O)cn1` [Example 24, 5-({[1-(4-Chloro-2-fluorophenyl)cyclopropyl]carbonyl}amino)-2-[6-(1,1-difluoropropyl)pyridin-3-yl]benzoic acid], the IC50 (as a rule, the concentration that gives 50% inhibition) turned out to be 290 nM. Consider `O=C(O)c1cc(NC(=O)C2(c3ccc(Cl)cn3)CC2)ccc1-c1cnn(C2CCC2)c1` [Example 58, 5-({[1-(5-Chloropyridin-2-yl)cyclopropyl]carbonyl}amino)-2-(1-cyclobutyl-1H-pyrazol-4-yl)benzoic acid], for which the IC50 is 360 nM. As to `O=C(O)c1cc(NC(=O)C2(c3cc(F)cc(Cl)c3)CC2)ccc1-c1cnn(C2CCC2)c1` [Example 57, 5-({[1-(3-Chloro-5-fluorophenyl)cyclopropyl]carbonyl}amino)-2-(1-cyclobutyl-1H-pyrazol-4-yl)benzoic acid], the concentration for half-maximal inhibition (IC50) turned out to be 840 nM. In the case of `O=C(O)c1cc(NC(=O)C2(c3ccc(OC(F)(F)F)cc3)CC2)ccc1-c1cnn(C2CCC2)c1` [Example 78, 2-(1-Cyclobutyl-1H-pyrazol-4-yl)-5-[({1-[4-(trifluoromethoxy)phenyl]cyclopropyl}carbonyl)amino]benzoic acid], the IC50 was found to be 300 nM.

Take `Cn1cc(-c2c(F)cc(NC(=O)C3(c4ccc(OC(F)(F)F)cc4F)CC3)cc2C(=O)O)cn1` [Example 137, 3-Fluoro-5-[({1-[2-fluoro-4-(trifluoromethoxy)phenyl]cyclopropyl}carbonyl)amino]-2-(1-methyl-1H-pyrazol-4-yl)benzoic acid]: the IC50 is 70 nM. On to `CC(C)(C)n1cc(-c2ccc(NC(=O)C3(c4ccc(C(F)(F)F)cc4F)CC3)cc2C(=O)O)cn1` [Example 72, 2-(1-tert-Butyl-1H-pyrazol-4-yl)-5-[({1-[2-fluoro-4-(trifluoromethyl)phenyl]cyclopropyl}carbonyl)amino]benzoic acid], for which the IC50 is 28 nM. For `COc1ccc(C2(C(=O)Nc3ccc(-c4cnn(C5CCC5)c4)c(C(=O)O)c3)CC2)c(F)c1` [Example 171, 2-(1-Cyclobutyl-1H-pyrazol-4-yl)-5-({[1-(2-fluoro-4-methoxyphenyl)cyclopropyl]carbonyl}amino)benzoic acid], the IC50 came to 390 nM. Under `O=C(O)c1cc(NC(=O)C2(c3ccc(OC(F)(F)F)cc3F)CC2)ccc1-n1cc(C(F)(F)F)cn1` [Example 65, 5-[({1-[2-Fluoro-4-(trifluoromethoxy)phenyl]cyclopropyl}carbonyl)amino]-2-[4-(trifluoromethyl)-1H-pyrazol-1-yl]benzoic acid] stands 2600 nM; under `CC(C)n1cc(-c2c(F)cc(NC(=O)C3(c4ccc(OC(F)(F)F)cc4)CC3)cc2C(=O)O)cn1` [Example 86, 3-Fluoro-2-[1-(propan-2-yl)-1H-pyrazol-4-yl]-5-[({1-[4-(trifluoromethoxy)phenyl]cyclopropyl}carbonyl)amino]benzoic acid], 69 nM; under `CC[C@H](C)n1cc(-c2c(F)cc(NC(=O)C3(c4ccc(C(F)(F)F)cc4F)CC3)cc2C(=O)O)cn1` [Example 135, 2-{1-[(2S)-Butan-2-yl]-1H-pyrazol-4-yl}-3-fluoro-5-[({1-[2-fluoro-4-(trifluoromethyl)phenyl]cyclopropyl}carbonyl)amino]benzoic acid], 33 nM.

As for `CCc1ccc(-c2c(F)cc(NC(=O)C3(c4ccc(C(F)(F)F)cc4F)CC3)cc2C(=O)O)cn1` [Example 162, 2-(6-Ethylpyridin-3-yl)-3-fluoro-5-[({1-[2-fluoro-4-(trifluoromethyl)phenyl]cyclopropyl}carbonyl)amino]benzoic acid], the IC50 turned out to be 14 nM. `O=C(O)c1cc(NC(=O)C2(c3ccccc3)CC2)cc(F)c1-c1cnn(C2CCC2)c1` [Example 141, 2-(1-Cyclobutyl-1H-pyrazol-4-yl)-3-fluoro-5-{[(1-phenylcyclopropyl)carbonyl]amino}benzoic acid]: the IC50 is 2800 nM. As for `CC(C1CC1)n1cc(-c2ccc(NC(=O)C3(c4ccc(C(F)(F)F)cc4F)CC3)cc2C(=O)O)cn1` (stereo not shown) [Example 153, 2-[1-(1-Cyclopropylethyl)-1H-pyrazol-4-yl]-5-[({1-[2-fluoro-4-(trifluoromethyl)phenyl]cyclopropyl}carbonyl)amino]benzoic acid], the figure is 8.7 nM; as for `O=C(O)c1c(-c2cnn(C3CCC3)c2)ccc(NC(=O)C2(c3ccc(OC(F)(F)F)cc3F)CC2)c1F` [Example 99, 6-(1-Cyclobutyl-1H-pyrazol-4-yl)-2-fluoro-3-[({1-[2-fluoro-4-(trifluoromethoxy)phenyl]cyclopropyl}carbonyl)amino]benzoic acid], 2000 nM; as for `O=C(O)c1cc(NC(=O)C2(c3c(F)cccc3F)CC2)ccc1-c1cnn(C2CCC2)c1` [Example 59, 2-(1-Cyclobutyl-1H-pyrazol-4-yl)-5-({[1-(2,6-difluorophenyl)cyclopropyl]carbonyl}amino)benzoic acid], 1100 nM. Under `O=C(O)c1cc(NC(=O)C2(c3ccc(C(F)(F)F)cc3F)CC2)ccc1-n1cc(C(F)(F)F)cn1` [Example 16, 5-[({1-[2-Fluoro-4-(trifluoromethyl)phenyl]cyclopropyl}carbonyl)amino]-2-[4-(trifluoromethyl)-1H-pyrazol-1-yl]benzoic acid] stands 2800 nM; under `CC1CCC(C2(C(=O)Nc3cc(F)c(-c4cnn(C5CCC5)c4)c(C(=O)O)c3)CC2)CC1` (stereo not shown) [Example 145, 2-(1-Cyclobutyl-1H-pyrazol-4-yl)-3-fluoro-5-({[1-(4-methylcyclohexyl)cyclopropyl]carbonyl}amino)benzoic acid], 160 nM. Under `O=C(O)c1cc(NC(=O)C2(c3ccc(OC(F)(F)F)cc3F)CC2)ccc1-c1cn(C2CCC2)cn1` [Example 170, 2-(1-Cyclobutyl-1H-imidazol-4-yl)-5-[({1-[2-fluoro-4-(trifluoromethoxy)phenyl]cyclopropyl}carbonyl)amino]benzoic acid] stands 2100 nM; under `CCCn1cc(-c2ccc(NC(=O)C3(c4ccc(C(F)(F)F)cc4F)CC3)cc2C(=O)O)cn1` [Example 114, 5-[({1-[2-Fluoro-4-(trifluoromethyl)phenyl]cyclopropyl}carbonyl)amino]-2-(1-propyl-1H-pyrazol-4-yl)benzoic acid], 85 nM; under `O=C(O)c1cc(NC(=O)C2(c3ccc(C(F)(F)F)cc3F)CC2)ccc1-c1cnn(C2CCCC2)c1` [Example 121, 2-(1-Cyclopentyl-1H-pyrazol-4-yl)-5-[({1-[2-fluoro-4-(trifluoromethyl)phenyl]cyclopropyl}carbonyl)amino]benzoic acid], 18 nM. For the molecule `CC1CCC(C2(C(=O)Nc3cc(F)c(-c4cnn(C5CCC5)c4)c(C(=O)O)c3)CC2)CC1` (mixture of isomers) [Example 144, 2-(1-Cyclobutyl-1H-pyrazol-4-yl)-3-fluoro-5-({[1-(4-methylcyclohexyl)cyclopropyl]carbonyl}amino)benzoic acid], the IC50 worked out at 320 nM. `CCn1cc(-c2ccc(NC(=O)C3(c4ccc(OC(F)(F)F)cc4F)CC3)cc2C(=O)O)cn1` [Example 69, 2-(1-Ethyl-1H-pyrazol-4-yl)-5-[({1-[2-fluoro-4-(trifluoromethoxy)phenyl]cyclopropyl}carbonyl)amino]benzoic acid]: the IC50 came out at 28 nM.

The values are drawn from patent publication US12023319B2, “Carboxylic acid aromatic amides” (priority 2016, dated 2024).
